Experimental data reported in publication PMC12195648 (Pharmaceuticals, 2025).
Like-named read-outs stand apart in the source and are kept apart here.

Legend:
recombinant Abl1 kinase = biological target: T1, recombinant Abl1 kinase (Homo sapiens, UniProt P00519); experiment: Abl1 kinase inhibition assay (peptide substrate, [γ-33P]ATP); assay type: biochemical
T1 construct: made in house
Experimental: The inhibitory activity of the synthesized compounds was assessed on an in-house produced recombinant Abl1 kinase. The assay utilized 500 µM peptide […] as a substrate in the presence of 1 µM ATP + [γ-33P]ATP (0.05 µCi per reaction) and the test compound in a final volume of 10 µL of reaction buffer (60 mM HEPES-NaOH, pH 7.5, 3 mM MgCl2, 3 mM MnCl2, 3 μM Na-orthovanadate, 1.2 mM DTT, 2.5 μg/50 μL PEG20.000). The reaction was terminated by adding 5 µL of 3% aq. H3PO4. Aliquots were spotted onto P-81 phosphocellulose (Whatman, Maidstone, UK), washed three times with 0.5% aq. H3PO4, and air-dried. Peptide phosphorylation was quantified through digital autoradiography (FLA-7000; Fujifilm, Tokyo, Japan).

K562 cells = experiment: Cytotoxicity, resazurin assay, K562; assay type: cell-based, human; conditions: for SI (K562): GI50 HEK-293T / GI50 K562; for GI50: Homo sapiens, K562, 72 h, resazurin, GI50 ± SD
Experimental: (§1) The development of the KCL22 subclone B8 (T315I, 100%) has been previously detailed. All cell lines were maintained in a humidified incubator at 37 °C and 5% CO2, following the manufacturer’s instructions, in the appropriate medium supplemented with 10% foetal bovine serum, penicillin (100 IU/mL), streptomycin (100 µg/mL), and glutamine (4 mM).
(§2) Cytotoxicity was assessed utilizing resazurin, an indicator dyes that measures oxidation-reduction reactions in the mitochondria of living cells. Cells were seeded into 96-well plates and treated with the compounds for 72 h (six different doses of each compound, in triplicate).

KCL22 cells = experiment: Cytotoxicity, resazurin assay, KCL22; assay type: cell-based, human; conditions: for SI (KCL22): GI50 HEK-293T / GI50 KCL22; for GI50: Homo sapiens, KCL-22, 72 h, resazurin, GI50 ± SD
Experimental: as §1, §2

KCL22-B8 cells = experiment: Cytotoxicity, resazurin assay, KCL22-B8 (Bcr-Abl T315I); assay type: cell-based, human; conditions: for SI (KCL22-B8): GI50 HEK-293T / GI50 KCL22-B8; for GI50: 72 h, resazurin, GI50 ± SD, Bcr-Abl T315I, imatinib-resistant
Experimental: as §1, §2

HEK-293T cells = experiment: Cytotoxicity, resazurin assay, non-neoplastic HEK-293T; assay type: cell-based; conditions: Homo sapiens, 72 h, GI50 ± SD
Experimental: as §1, with “The human cell line KCL22 was sourced from the German Collection of Microorganisms and Cell Cultures, while K562 and HEK-293T cells were obtained from the European Collection of Authenticated Cell Cultures. The” for “The”
Cytotoxicity was assessed utilizing resazurin, an indicator dyes that measures oxidation-reduction reactions in the mitochondria of living cells. Cells were seeded into 96-well plates and treated with the compounds for 72 h (six different doses of each compound, in triplicate). After treatment, a solution of resazurin (Merck, Prague, Czech Republic) was added for 4 h, and the fluorescence of resorufin corresponding to viable cell quantity was measured at 544 nm/590 nm (excitation/emission) using a Fluoroskan Ascent microplate reader (LabSystems, Helsinki, Finland).

[1] = tested on: KCL22 cells with Bcr-Abl^T315I; conditions: cited from earlier work
[2] = experimental pIC50 = −logIC50 on Abl, read-out: pIC50 Exp (converted)
[3] = in vitro inhibition of Abl1 kinase, 1 µM ATP, at least three independent experiments, read-out: IC50 Abl

T1 sequence (P00519 whole entry): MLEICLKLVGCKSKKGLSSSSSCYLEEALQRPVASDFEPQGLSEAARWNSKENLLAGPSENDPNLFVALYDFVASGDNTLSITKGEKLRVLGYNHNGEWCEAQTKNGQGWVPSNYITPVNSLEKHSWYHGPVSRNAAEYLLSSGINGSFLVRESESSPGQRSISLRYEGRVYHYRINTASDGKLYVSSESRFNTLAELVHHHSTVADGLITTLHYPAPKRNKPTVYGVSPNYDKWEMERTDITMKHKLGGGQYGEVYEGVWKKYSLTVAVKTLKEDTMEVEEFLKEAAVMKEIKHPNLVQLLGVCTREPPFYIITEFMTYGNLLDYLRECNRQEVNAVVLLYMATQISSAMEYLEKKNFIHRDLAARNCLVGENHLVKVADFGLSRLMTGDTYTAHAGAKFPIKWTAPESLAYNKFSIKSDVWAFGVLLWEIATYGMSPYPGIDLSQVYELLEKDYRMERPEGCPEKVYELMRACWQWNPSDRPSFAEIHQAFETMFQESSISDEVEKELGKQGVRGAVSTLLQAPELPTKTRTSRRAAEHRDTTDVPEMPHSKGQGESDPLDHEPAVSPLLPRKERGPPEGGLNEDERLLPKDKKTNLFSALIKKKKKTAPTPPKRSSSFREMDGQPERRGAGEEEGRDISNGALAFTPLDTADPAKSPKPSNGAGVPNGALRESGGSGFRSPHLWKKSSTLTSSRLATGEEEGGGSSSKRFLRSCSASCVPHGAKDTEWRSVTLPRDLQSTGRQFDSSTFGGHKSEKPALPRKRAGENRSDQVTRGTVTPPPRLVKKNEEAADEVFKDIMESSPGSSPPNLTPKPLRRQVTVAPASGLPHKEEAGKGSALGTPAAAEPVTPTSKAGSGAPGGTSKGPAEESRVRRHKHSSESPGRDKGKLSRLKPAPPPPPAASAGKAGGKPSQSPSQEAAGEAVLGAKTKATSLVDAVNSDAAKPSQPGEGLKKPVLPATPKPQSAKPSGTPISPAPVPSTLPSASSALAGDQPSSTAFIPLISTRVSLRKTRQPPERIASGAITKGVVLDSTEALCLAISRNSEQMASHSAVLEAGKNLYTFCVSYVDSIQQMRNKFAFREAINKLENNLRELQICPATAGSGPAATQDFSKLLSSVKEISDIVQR

IC50 (recombinant Abl1 kinase; [2]) [µM] | IC50 (recombinant Abl1 kinase; [3]) [µM] | Compound | SI (K562) (K562 cells) | GI50 (K562 cells) [µM] | SI (KCL22) (KCL22 cells) | GI50 (KCL22 cells) [µM] | SI (KCL22-B8) (KCL22-B8 cells) | GI50 (KCL22-B8 cells; Homo sapiens) [µM] | GI50 (HEK-293T cells) [µM] | fold more potent than 7b (K562 cells; K562 cells, GI50 ratio) [fold] | fold more potent than 7b (KCL22 cells; KCL22 cells, GI50 ratio) | GI50 (KCL22-B8 cells) [µM] | GI50 [1] [µM]
0.13 | 0.13 ± 0.03 | OCCOCCN1CCN(c2ccc(Nc3nc(Nc4cccc(F)c4)c4ncn(CC5CC5)c4n3)cc2)CC1 [Compound 7a, 2-(2-(4-(4-((9-(Cyclopropylmethyl)-6-((3-fluorophenyl)amino)-9H-purin-2-yl)amino)phenyl)piperazin-1-yl)ethoxy)ethan-1-ol] | 5.0 | 1.37 ± 0.61 | 2.9 | 2.38 ± 1.12 | 0.4 | 17.4 ± 2.02 | 6.85 ± 0.66 | – | – | – | –
0.46 | 0.46 ± 0.15 | N#Cc1cccc(Nc2nc(Nc3ccc(N4CCN(CCO)CC4)cc3)nc3c2ncn3CC2CC2)c1 [Compound 7b, 3-((9-(Cyclopropylmethyl)-2-((4-(4-(2-hydroxyethyl)piperazin-1-yl)phenyl)amino)-9H-purin-6-yl)amino)benzonitrile] | 3.6 | 4.04 ± 1.87 | 1.1 | 13.1 ± 2.21 | 0.8 | 17.9 ± 2.71 | 14.8 ± 0.91 | – | – | – | –
0.19 | 0.19 ± 0.05 | N#Cc1cccc(Nc2nc(Nc3ccc(N4CCN(CCO)CC4)nc3)nc3c2ncn3CC2CC2)c1 [Compound 7c, 3-((9-(Cyclopropylmethyl)-2-((6-(4-(2-hydroxyethyl)piperazin-1-yl)pyridin-3-yl)amino)-9H-purin-6-yl)amino)benzonitrile] | – | 0.3 ± 0.11 | 16 | 1.54 ± 1.02 | 0.8 | > 25 | > 25 | 13 | approximately 8.5 fold | – | –
0.21 | 0.21 ± 0.01 | OCCN1CCN(c2ccc(Nc3nc(Nc4cccc(Br)c4)c4ncn(CC5CC5)c4n3)cc2)CC1 [Compound 7d, 2-(4-(4-((6-((3-Bromophenyl)amino)-9-(cyclopropylmethyl)-9H-purin-2-yl)amino)phenyl)piperazin-1-yl)ethan-1-ol] | 5.5 | 1.44 ± 0.91 | 2.7 | 2.96 ± 0.97 | 0.4 | 20.1 ± 2.35 | 7.87 ± 1.53 | – | – | – | –
0.42 | 0.42 ± 0.08 | COC(=O)c1ccc(Nc2nc(Nc3ccc(N4CCN(CCO)CC4)cc3)nc3c2ncn3CC2CC2)cc1Cl [Compound 7e, Methyl 2-chloro-4-((9-(cyclopropylmethyl)-2-((4-(4-(2-hydroxyethyl)piperazin-1-yl)phenyl)amino)-9H-purin-6-yl)amino)benzoate] | 2.7 | 2.19 ± 1.42 | 1.7 | 3.88 ± 1.46 | 0.4 | 13.8 | 5.98 ± 2.78 | – | – | 15.4 ± 0.98 | –
1.26 | 1.26 ± 0.65 | OCCN1CCN(c2ccc(Nc3nc(Nc4ccc(Cl)c(C(F)(F)F)c4)c4ncn(CC5CC5)c4n3)cc2)CC1 [Compound 7f, 2-(4-(4-((6-((4-Chloro-3-(trifluoromethyl)phenyl)amino)-9-(cyclopropylmethyl)-9H-purin-2-yl)amino)phenyl)piperazin-1-yl)ethan-1-ol] | 1.1 | 3.56 ± 0.52 | 0.3 | 12.4 ± 4.28 | 0.3 | 15.4 | 3.96 ± 0.57 | – | – | 13.8 ± 3.05 | –
0.791 | 0.79 ± 0.14 | COc1cc(Nc2nc(Nc3ccc(N4CCN(CCO)CC4)cc3)nc3c2ncn3CC2CC2)ccc1Br [Compound 7g, 2-(4-(4-((6-((4-Bromo-3-methoxyphenyl)amino)-9-(cyclopropylmethyl)-9H-purin-2-yl)amino)phenyl)piperazin-1-yl)ethan-1-ol] | 1.8 | 2.34 ± 1.04 | 0.8 | 5.51 ± 1.08 | 0.3 | 15.4 | 4.32 ± 1.42 | – | – | 16.6 ± 0.92 | –
– | – | Cc1cn(-c2cc(NC(=O)c3ccc(C)c(Nc4nccc(-c5cccnc5)n4)c3)cc(C(F)(F)F)c2)cn1 [nilotinib] | – | – | – | – | – | – | – | – | – | – | > 20
